Laboratory results reported in publication PMC9367459 (Animals : an Open Access Journal from MDPI, 2022).
Several values for one entry are separate records, joined by “and”; a condition that tells them apart may be missing. Equal entries are not always repeated. Where two headings read alike, the source gives them in different places.

Tests used:
FMDV serotype A [1] = assay type: cell-based, A/TAI/NP05/2016 (NP05)
FMDV 3C^pro = FMDV 3C^pro (Foot-and-mouth disease virus, UniProt P03306); experiment: cell-based; conditions: for IC90: HEK-293T
Chain of FMDV 3C^pro (P03306 1650-1862 limits assumed): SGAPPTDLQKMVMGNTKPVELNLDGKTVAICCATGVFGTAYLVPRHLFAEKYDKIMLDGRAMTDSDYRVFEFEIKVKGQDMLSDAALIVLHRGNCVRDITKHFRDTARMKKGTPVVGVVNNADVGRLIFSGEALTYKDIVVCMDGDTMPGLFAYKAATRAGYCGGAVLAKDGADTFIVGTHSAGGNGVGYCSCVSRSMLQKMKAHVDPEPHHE

[2] = test system: IFN-antagonist activity of FMDV 3C^pro; assay type: cell-based, human
FMDV [3] = assay type: cell-based, FMDV serotype A, A/TAI/NP05/2016 (NP05)
FMDV [4] = assay type: cell-based, FMDV serotype A, A/TAI/NP05/2016 (NP05); remark: listed apart in the source
BHK-21 cells = conditions: hamster
FMDV serotype A [5] = test system: FMDV serotype A
in vitro [6] = conditions: hamster
in vitro [7] = conditions: human
FMDV serotype A [8] = experiment: organism not typed; conditions: BHK-21
hepatitis B virus = conditions: cited from earlier work
chikungunya virus = conditions: cited from earlier work

Row | SMILES | Viral nucleic acids (viral copy numbers) (FMDV serotype A [1]) | IC50 (FMDV 3C^pro) [µM] | IC90 (FMDV 3C^pro) [µM] | Effect on IFN-antagonist activity of 3C^pro [2] | ISG15 mRNA expression [2] | ISG56 mRNA expression [2] | Mx-1 mRNA expression [2] | OAS-1 mRNA expression [2] | PKR mRNA expression [2] | Extracellular virucidal activity (FMDV [3]) | Protection activity (FMDV [4]) | CC10 (BHK-21 cells) [µM] | CC50 (BHK-21 cells) [µM] | EC50 (FMDV serotype A [5]) [µM] | SI (CC50/EC50) (FMDV serotype A [5]) | CC50 (in vitro [6]) [µM] | CC50 (in vitro [7]) [µM] | EC50 (FMDV serotype A [8]) [µM] | EC50 (hepatitis B virus) [µM] | EC50 (chikungunya virus)
1 | C=C1CC[C@@H]2[C@](C)(CO[C@@H]3O[C@H](CO)[C@@H](O)[C@H](O)[C@H]3O)CCC[C@@]2(C)[C@@H]1CCC1=CCOC1=O [NEO, neoandrographolide] | reduced viral replication to a lesser extent | 111 ± 2.04 | 635.8 ± 2.9 | could not reduce the IFN suppression by 3C^pro | 37.58 fold-changes and 32.91 fold-changes | 62.33 fold-changes and 55.39 fold-changes | 2.19 fold-changes and 4.00 fold-changes | 106.88 fold-changes and 163.69 fold-changes | 3.65 fold-changes and 1.99 fold-changes | neither extracellular virucidal nor protection activities | neither extracellular virucidal nor protection activities | 149.94 ± 0.21 | 211.5 ± 0.03 | 542.4 ± 0.2 | 0.38 | 332.3 ± 0.09 | 914.2 ± 0.04 | > 500 |  | 
2 | C=C1CC[C@@H]2[C@](C)(CO)[C@H](O)CC[C@@]2(C)[C@@H]1C/C=C1/C(=O)OC[C@H]1O [AGL, andrographolide] | significantly decreased | 67.4 ± 0.81 | 267.2 ± 2.43 | significantly derepressed the IFN-antagonist activity of the 3C^pro | 52.93 fold-changes and 59.99 fold-changes | 72.73 fold-changes and 107.66 fold-changes | 5.33 fold-changes and 6.98 fold-changes |  | 6.22 fold-changes and 6.12 fold-changes | neither extracellular virucidal nor protection activities | neither extracellular virucidal nor protection activities | 94.55 ± 0.02 |  |  | 2.23 | 116.8 ± 0.03 | 453 ± 0.04 | 52.18 ± 0.01 | 54.1 | 77.4 µM and 88 µM
3 | C=C1CC[C@@H]2[C@](C)(CO)[C@H](O)CC[C@@]2(C)[C@@H]1CCC1=CCOC1=O [DAG, deoxyandrographolide] | significantly decreased | 25.6 ± 1.41 | 123 ± 2.09 | significantly derepressed the IFN-antagonist activity of the 3C^pro | 62.36 fold-changes and 64.43 fold-changes | 84.77 fold-changes and 77.60 fold-changes | 14.37 fold-changes and 13.04 fold-changes | 250.25 fold-changes and 244.76 fold-changes | 11.65 fold-changes and 12.84 fold-changes | neither extracellular virucidal nor protection activities | neither extracellular virucidal nor protection activities | 81.05 ± 0.01 | 332.3 ± 0.09 |  |  | 211.5 ± 0.03 | 651.4 ± 0.32 | 36.47 ± 0.07 |  | 
